This test has as its target Complement factor D (Homo sapiens, UniProt P00746). Nature of the test: Human Factor D Assay: Human Factor D (purified from human serum, Complement Technology, Inc.) at 80 nM final concentration is incubated with test compound at various concentrations for 5 min at room temperature in 50 mM Tris, 1M NaCl, pH 7.5. A synthetic substrate Z-L-Lys-SBzl and DTNB (Ellman's reagent) are added to final concentrations of 100 µM each. Absorbance at 405 nm (A405) is recorded at 30 second intervals for 30 minutes using a microplate spectrophotometer. IC50 values are calculated by nonlinear regression of Complement Factor D reaction rates as a function of test compound concentration.
Chain of Complement factor D (P00746 whole entry): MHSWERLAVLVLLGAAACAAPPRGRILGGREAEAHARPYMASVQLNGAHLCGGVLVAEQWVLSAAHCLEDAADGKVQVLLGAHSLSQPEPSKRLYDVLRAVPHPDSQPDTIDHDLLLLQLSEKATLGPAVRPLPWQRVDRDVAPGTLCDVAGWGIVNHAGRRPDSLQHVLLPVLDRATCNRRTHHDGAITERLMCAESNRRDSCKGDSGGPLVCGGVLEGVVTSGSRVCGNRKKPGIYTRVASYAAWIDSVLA
Take `CC(=O)c1nn2c3c(cc(-c4cnc(C)nc4)cc13)CC/C=C\CCCC(=O)NC[C@@]13C[C@@H](C(=O)Nc4nc(Br)ccc4C)N(C(=O)C2)[C@@H]1C3`: the 50% inhibitory concentration (IC50) – broadly, the concentration that inhibits the measured activity by half – was below 1000 nM.

As to `CC(=O)c1nn(CC(=O)N2[C@H]3C[C@@]4(/C=C\CCCCN(C)C(=O)Cc5ccc(Br)nc5NC3=O)C[C@@H]24)c2ccc(-c3cnc(C)nc3)cc12`, the IC50 is below 1000 nM.

For `CC(=O)c1nn2c3c(cc(-c4cnc(C)nc4)cc13)CCCCCC/C=C\c1cn(nn1)C[C@@]13C[C@@H](C(=O)Nc4nc(Br)ccc4C)N(C(=O)C2)[C@@H]1C3`, the IC50 is below 1000 nM.

As for `CC(=O)c1nn(CC(=O)N2[C@H]3C[C@]4(C[C@@H]24)CN2CC(CCCOCc4ccc(Br)nc4NC3=O)C2)c2c(C)cc(-c3cnc(C)nc3)cc12`, the half-inhibitory concentration (IC50) was below 1000 nM.

As for `CC(=O)c1nn2c3c(cc(-c4cnc(C)nc4)cc13)C/C=C\CCCC(=O)NC[C@@]13C[C@@H](C(=O)Nc4nc(Br)ccc4C)N(C(=O)C2)[C@@H]1C3`, the IC50 was below 1000 nM.

Take `CC(=O)c1nn(CC(=O)N2[C@H]3C[C@]4(C[C@@H]24)CN(C)CC(O)C(O)COCc2ccc(Br)nc2NC3=O)c2cnc(-c3cnc(C)nc3)cc12` (stereo not given in full): the IC50 is below 1000 nM.

In the case of `CC(=O)c1nn(CC(=O)N2[C@H]3C[C@]4(C[C@@H]24)CN(C)CCCC/C=C\Cc2ccc(Br)nc2NC3=O)c2c(CF)cc(-c3cnc(C)nc3)cc12`, the concentration for half-maximal inhibition (IC50) is below 1000 nM.

`CC(=O)N[C@H]1C/C=C\COCc2ccc(Br)nc2NC(=O)[C@@H]2C[C@@]3(CNC1=O)C[C@H]3N2C(=O)Cn1nc(C(C)=O)c2cc(-c3cnc(C)nc3)ccc21`: the IC50 was below 1000 nM.

In the case of `CC(=O)c1nn2c3c(cc(-c4cnc(C)nc4)cc13)C/C=C\CCCC(=O)NC[C@@]13C[C@@H](C(=O)Nc4nc(C(F)(F)F)ccc4C)N(C(=O)C2)[C@@H]1C3`, the IC50 is below 1000 nM.

Take `C=C1COCc2ccc(Br)nc2NC(=O)[C@@H]2C[C@]3(C[C@H]3N2C(=O)Cn2nc(C(C)=O)c3cc(-c4cnc(C)nc4)ncc32)Cn2cc1cn2`: the half-maximal inhibitory concentration (IC50) was below 1000 nM.

(Values after ChEMBL document CHEMBL5728699, “Macrocyclic compounds for treatment of medical disorders” (2021).)
